From patent publication US9873696B2, “Neprilysin inhibitors” (THERAVANCE BIOPHARMA R&D IP, LLC, priority 2010, dated 2018) come the findings set out here.

One may read the Ki as a measure of affinity in units of concentration, obtained from inhibition or displacement.

T1 sequence (P08473 whole entry): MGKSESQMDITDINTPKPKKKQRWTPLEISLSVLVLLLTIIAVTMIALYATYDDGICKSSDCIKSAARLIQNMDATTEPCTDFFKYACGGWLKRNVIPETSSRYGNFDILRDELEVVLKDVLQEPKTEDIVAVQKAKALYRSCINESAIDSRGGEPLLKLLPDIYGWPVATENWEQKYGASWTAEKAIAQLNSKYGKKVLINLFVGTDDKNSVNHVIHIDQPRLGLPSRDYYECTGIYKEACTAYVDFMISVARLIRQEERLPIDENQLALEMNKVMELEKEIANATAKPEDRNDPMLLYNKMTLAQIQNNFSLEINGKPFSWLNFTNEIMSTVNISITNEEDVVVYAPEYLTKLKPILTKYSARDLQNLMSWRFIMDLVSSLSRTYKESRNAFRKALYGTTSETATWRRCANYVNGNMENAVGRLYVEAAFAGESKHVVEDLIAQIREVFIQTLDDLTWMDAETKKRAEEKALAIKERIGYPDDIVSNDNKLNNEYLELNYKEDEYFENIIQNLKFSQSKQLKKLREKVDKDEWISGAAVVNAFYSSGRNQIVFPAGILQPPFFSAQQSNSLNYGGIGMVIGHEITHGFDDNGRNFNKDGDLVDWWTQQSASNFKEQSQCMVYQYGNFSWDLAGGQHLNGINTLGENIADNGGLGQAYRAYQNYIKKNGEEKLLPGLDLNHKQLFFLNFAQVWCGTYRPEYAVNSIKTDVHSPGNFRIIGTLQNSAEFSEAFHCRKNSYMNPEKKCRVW

The experiment addresses T1, human NEP (Homo sapiens, UniProt P08473).
T1 construct: purchased R&D Systems, Minneapolis, Minn; 1182-ZN
In words: In vitro enzyme inhibition assay at human NEP (Assay 1). Format: biochemical. The following applies: recombinant enzyme, fluorogenic peptide substrate, 37° C. A digest of the protocol:
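Recombinant enzyme preincubated with compound 30 min at 37 °C, then 10 μM Mca-D-Arg-Arg-Leu-Dap-(Dnp)-OH added in 50 mM HEPES pH 7.5, 100 mM NaCl, 0.01% Tween-20, 10 μM ZnSO4; stopped after 20 min with acetic acid. Fluorescence read at 320/405 nm; Ki from nonlinear fit of v=v0/[1+(I/K′)], reported as pKi.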
Turning to `O=C(NN(Cc1ccc(-c2cc(Cl)ccc2F)cc1)C[C@@H](O)C(=O)O)c1cc(Cl)no1` [Example 8-29, (R)-3-[N-(5′-Chloro-2′-fluoro-biphenyl-4-ylmethyl)-N′-(3-chloro-isoxazole-5-carbonyl)-hydrazino]-2-hydroxy-propionic acid], the Ki was 1.26 to 10 nM.
Regarding `O=C(NN(Cc1ccc(-c2cccc(Cl)c2)cc1)C[C@@H](O)C(=O)O)c1nc(O)n[nH]1` [Example 4-2, (R)-3-[N-(3′-Chlorobiphenyl-4-ylmethyl)-N′-(5-hydroxy-2H-[1,2,4]triazole-3-carbonyl)-hydrazino]-2-hydroxy-propionic acid], the Ki is 1.26 to 10 nM.
Under `N#Cc1cc(-c2cccc(Cl)c2)ccc1CN(C[C@@H](O)C(=O)O)NC(=O)c1cc(O)no1` [Example 10-2, (R)-3-[N-(3′-Chloro-3-cyano-biphenyl-4-ylmethyl)-N′-(3-hydroxy-isoxazole-5-carbonyl)-hydrazino]-2-hydroxy-propionic acid] stands 1.26 to 10 nM; under `CN(C)C(=O)c1cc(C(=O)NN(Cc2ccc(-c3cccc(Cl)c3)cc2)C[C@@H](O)C(=O)O)[nH]n1` [Example 4-13, (R)-3-[N-(3′-Chlorobiphenyl-4-ylmethyl)-N′-(5-dimethylcarbamoyl-2H-pyrazole-3-carbonyl)-hydrazino]-2-hydroxy-propionic acid], no more than 1 nM.
`O=C(NN(Cc1ccc(-c2cccc(F)c2)cc1)C[C@@H](O)C(=O)O)c1cc(O)no1` [Example 5-1, (R)-3-[N-(3′-Fluoro-biphenyl-4-ylmethyl)-N′-(3-hydroxy-isoxazole-5-carbonyl)-hydrazino]-2-hydroxy-propionic acid]: the Ki is 1.26 to 10 nM.
Under `O=C(NN(Cc1ccc(-c2cc(Cl)ccc2F)cc1)C[C@@H](O)C(=O)O)c1nnn[nH]1` [Example 6A, (R)-3-[N-(5′-Chloro-2′-fluorobiphenyl-4-ylmethyl)-N′-(1H-tetrazole-5-carbonyl)-hydrazino]-2-hydroxypropionic Acid] stands no more than 1 nM.
